From US20100168038A1, “USE OF COMPOUNDS IN COMBINATION WITH GAMMA-IRRADIATION FOR THE TREATMENT OF CANCER” (priority 2006, published 2010)
Several values for one entry are separate records, joined by “and”; a condition that tells them apart may be missing. Identical values can stand only once. Residues, ends and D or L forms follow the SMILES beside them.

What was measured:
[1] = Toxicity study in vivo, single agent; settings: doses up to 100 mg/kg, preliminary study
[2] = tested on: DBA/2-c-Myc/Bcl-xL cells; experiment: Tumor growth of DBA/2-c-Myc/Bcl-xL cells in DBA/2 mice; type: in vivo, mouse
Description: (§1) Tumor Growth Experiments. Tumor cells were washed in PBS and resuspended in a volume of 200 micro-l per inoculate. The cells were then inoculated into the right flank at 10^6 per mouse and growth of the tumor was monitored by measurement two times per week. The initiation of anti-tumor treatment of the mice was to some extent individualized according to when tumor growth started in each mouse. The mice were irradiated with 4 Gy prior to tumor inoculation in order to inhibit anti-tumor immune responses. The tumor volume was calculated as the mean volume in mice with tumors growth, according to (a1×a2×a3)/2 (the numbers ai denote tumor diameter, width and depth). The time of first palpation varied between different mice, although the general pattern of growth was similar in virtually all of the mice. In most diagrams a log-scale is used to better visualize the therapeutic effects against small tumors, i.e. the presence of complete rejections. For inhibition of TPPII in vivo we made intraperitoneal injections with 13.8 mg per kg of body weight (14 micro-l of a 50 mM solution/mouse) of the Subtilisin inhibitor Z-Gly-Leu-Ala-OH (Z-GLA-OH, Bachem, Weil am Rhein, Germany) twice per week, diluted into 200 micro-l PBS. All gamma-irradiations were full body exposures.
Retroviral transduction and transplantation. […]
Detection of GFP and YFP expression was performed using a Cyan™ ADP cytometer (Dako, Glostrup, Denmark) where after excitation at 488 nm, a 525-nm long-pass dichroic mirror was used to initially separate the signals followed by a 510/21-nm bandpass filter for detection of EGFP and a 550/30-nm band pass filter for EYFP. Data were analyzed using FlowJo software (Tree Star, Inc., San Carlos, Calif.). […]

[3] = Stability in serum; type: in vitro ADME
[4] = tested on: HeLa cells (human cervical carcinoma); experiment: Tumor growth of HeLa cells in CB.17 SCID mice, Z-GLA-OH with gamma-irradiation; type: in vivo; settings: Z-GLA-OH + gamma-irradiation 1.5 Gy/dose
[5] = tested on: Lewis Lung Carcinoma (LLC) cells; experiment: Tumor growth of Lewis Lung Carcinoma (LLC) in mice, compound with or without gamma-irradiation; type: in vivo, mouse; settings: for tumor volume / tumor volume, mean: LLC; for tumor volume: single mouse; for tumor volume, mean: group mean
Description: as §1
Table 2 contains in vivo data, showing tumor volume in mm^3, in groups of 4 mice with LLC (Lewis Lung Carcinoma). Mice were sacrificed if the tumor volume exceeded 1000 mm^3. Some mice were administered with the compounds alone; others were additionally administered with irradiation. Mice were given the compounds, and in some cases also gamma irradition (400 Rad), at days 7, 10, 14, 18 and 21.

[6] = compound + gamma irradiation (400 Rad), day 10
[7] = compound + gamma irradiation (400 Rad), day 14
[8] = compound + gamma irradiation (400 Rad), day 18
[9] = compound + gamma irradiation (400 Rad), day 21

SMILES: CC(C)C[C@H](NC(=O)CNC(=O)OCc1ccccc1)C(=O)N[C@@H](C)C(=O)O [Z-GLA-OH, Z-Gly-Leu-Ala-OH] (HELM PEPTIDE1{[O=C(OCc1ccccc1)[*:2]].G.L.A}$$$$V2.0)
- toxicity in vivo [1]: minor effects
- tumor cells in lung, spleen or liver ([2]; Z-GLA-OH 13.8 mg/kg + gamma-irradiation, flow cytometry, histology): failed to find tumor cells
- tumor response ([2]; Z-GLA-OH only, no gamma-irradiation): no reduction of tumor size
- tumor response ([2]; established DBA/2-c-Myc/Bcl-xL tumors, Z-GLA-OH 13.8 mg/kg + 4 Gy doses of gamma-irradiation): complete tumor regression
- stability in serum [3]: relatively stable in serum
- tumor response [4]: strong tumor regression
- tumor volume ([5]; compound + gamma irradiation (400 Rad) at days 7, 10, 14, 18, 21, day 7): 4.0 mm^3 and 6.0 mm^3 (2×) and 0.0 mm^3
- tumor volume, mean ([5]; compound + gamma irradiation (400 Rad), day 7): 4.00 mm^3
- tumor volume, mean [5, 6]: 64.00 mm^3
- tumor volume [5, 6]: 48.0 mm^3 and 128.0 mm^3 and 40.0 mm^3 (2×)
- tumor volume, mean [5, 7]: 84.00 mm^3
- tumor volume [5, 7]: 72.0 mm^3 (2×) and 144.0 mm^3 and 48.0 mm^3
- tumor volume, mean [5, 8]: 25.38 mm^3
- tumor volume [5, 8]: 32 mm^3 (2×) and 24 mm^3 and 13.5 mm^3
- tumor volume, mean [5, 9]: 7.00 mm^3
- tumor volume [5, 9]: 13.5 mm^3 (2×) and 0.5 mm^3 (2×)
- tumor volume, mean ([5]; compound alone, day 7): 5.88 mm^3
- tumor volume ([5]; compound alone, day 7 after tumor inoculation): 4.0 mm^3 and 0.0 mm^3 and 6.0 mm^3 and 13.5 mm^3
- tumor volume, mean ([5]; compound alone, day 10): 150.25 mm^3
- tumor volume ([5]; compound alone, day 10): 256.0 mm^3 and 192.0 mm^3 and 9.0 mm^3 and 144.0 mm^3
- tumor volume, mean ([5]; compound alone, day 14): 748 mm^3
- tumor volume ([5]; compound alone, day 14): 660.0 mm^3 and 864.0 mm^3 and 720.0 mm^3
- tumor volume, mean ([5]; compound alone, day 18): 1300.67 mm^3
- tumor volume ([5]; compound alone, day 18): 864 mm^3 and 1470 mm^3 and 1568 mm^3
- tumor volume ([5]; compound alone, day 21): 2048.0 mm^3
- effect on LLC tumors ([5]; Z-GLA-OH only, in the absence of gamma-irradiation): no effect
- tumor response ([5]; established LLC tumors, gamma-irradiation 4 Gy doses + Z-GLA-OH injection): complete regression
